The text below walks through data of patent publication US20250051403A1, “ANTIMICROBIAL PEPTIDES, VARIANTS AND CHEMICAL ANALOGUES THEREOF AND THEIR USES” (priority 2021, published 2025).

Test [1] concerns Mycobacterium tuberculosis mc^26230.

Each structure is given as a SMILES string. Converted amounts (≈) assume the structure as drawn. Positions of bridges follow the written chain, without caps; N, C: chain ends. Residues, ends and D or L forms follow the SMILES beside them.

In the case of `CC[C@H](C)[C@H](NC(=O)[C@H](CCCNC(=N)N)NC(=O)[C@@H](NC(=O)[C@H](CS)NC(=O)[C@@H](NC(=O)[C@@H](N)CCCNC(=N)N)C(C)C)C(C)C)C(=O)N[C@@H](CS)C(=O)N[C@@H](CCCNC(=N)N)C(=O)N[C@@H](CC(N)=O)C(=O)NCC(=O)N[C@@H](CCCNC(=N)N)C(=O)N[C@@H](CS)C(=O)N[C@@H](Cc1ccc(O)cc1)C(=O)N[C@@H](CCCNC(=N)N)C(=O)N[C@@H](CCCNC(=N)N)C(=O)N[C@@H](CS)C(=O)N[C@@H](Cc1c[nH]c2ccccc12)C(=O)N[C@@H](CC(N)=O)C(=O)N[C@H](C(=O)O)[C@@H](C)O` [Linear unfolded analogue of Michelicin] (H-RVCVRICRNGRCYRRCWNT-OH; N-terminus and C-terminus assumed), the MIC (in general, the smallest concentration in the dilution series that meets the test's criterion for growth inhibition) in the test with M. smegmatis mc^2155 turned out to be 1.25 µM (≈ 3.02 µg/mL); in the test on Vibrio alginolyticus, 0.625 µM (≈ 1.51 µg/mL).
On to `CC(C)[C@@H]1NC(=O)[C@H](CCCNC(=N)N)NC(=O)[C@H](C(C)C)NC(=O)[C@@H](NC(=O)[C@@H](NC(=O)[C@@H](N)CCCNC(=N)N)C(C)C)CSSC[C@@H](C(=O)N[C@@H](Cc2c[nH]c3ccccc23)C(=O)N[C@@H](CC(N)=O)C(=O)N[C@H](C(=O)O)[C@@H](C)O)NC(=O)[C@H](CCCNC(=N)N)NC(=O)[C@H](CCCNC(=N)N)NC(=O)[C@H](Cc2ccc(O)cc2)NC(=O)[C@@H]2CSSC[C@H](NC1=O)C(=O)N[C@@H](CCCNC(=N)N)C(=O)N[C@@H](CC(N)=O)C(=O)NCC(=O)N[C@@H](CCCNC(=N)N)C(=O)N2` [V1, RVC1VRVC2RNGRC3YRRC4WNT] (H-RVCVRVCRNGRCYRRCWNT-OH; disulfide 3-16, 7-12; N-terminus and C-terminus assumed), for which, in the test on P. aeruginosa, the “P. aeruginosa MIC” value was in the range of 2.5 to 5 µM. Besides, in the test on M. smegmatis mc^2155, the “M. smegmatis mc^2155 MIC” value was 1.15 to 4.21 µM. In addition, the “V. alginolyticus MIC” value in the test on Vibrio alginolyticus was in the range of 0.125 to 0.312 µM. Besides, in test [1], the “M. tuberculosis mc^26230 MIC” value was 29.8 to 30.2 µM.
In the same order, the values of `CC[C@H](C)[C@@H]1NC(=O)[C@@H]2CSSC[C@H](NC(=O)[C@H](C(C)C)NC(=O)[C@H](CCCNC(=N)N)NC(=O)[C@H](C(C)C)NC(=O)[C@@H](NC(=O)[C@H](Cc3ccccc3)NC(=O)[C@@H](N)CCCNC(=N)N)CSSC[C@@H](C(=O)N[C@@H](Cc3c[nH]c4ccccc34)C(=O)N[C@@H](CC(N)=O)C(=O)N[C@H](C(=O)O)[C@@H](C)O)NC(=O)[C@H](CCCCN)NC(=O)[C@H](CCSC)NC1=O)C(=O)N[C@@H](CCCNC(=N)N)C(=O)N[C@@H](CC(N)=O)C(=O)NCC(=O)N[C@@H](CCCNC(=N)N)C(=O)N2` [V2, RFC1VRVC2RNGRC3IMKC4WNT] (H-RFCVRVCRNGRCIMKCWNT-OH; disulfide 3-16, 7-12; N-terminus and C-terminus assumed) are 2.5 to 5 µM, 0.72 to 2.95 µM, 0.312 to 0.625 µM and 19.7 to 30.0 µM.
In the same order, the values of `CC[C@H](C)[C@@H]1NC(=O)[C@@H]2CSSC[C@H](NC(=O)[C@H](C(C)C)NC(=O)[C@H](CCCNC(=N)N)NC(=O)[C@H](C(C)C)NC(=O)[C@@H](NC(=O)[C@@H](NC(=O)[C@@H](N)CCCNC(=N)N)[C@@H](C)CC)CSSC[C@@H](C(=O)N[C@@H](Cc3c[nH]c4ccccc34)C(=O)N[C@@H](CC(N)=O)C(=O)N[C@H](C(=O)O)[C@@H](C)O)NC(=O)[C@H](CCCCN)NC(=O)[C@H](CCSC)NC1=O)C(=O)N[C@@H](CCCNC(=N)N)C(=O)N[C@@H](CC(N)=O)C(=O)NCC(=O)N[C@@H](CCCNC(=N)N)C(=O)N2` [V3, RIC1VRVC2RNGRC3IMKC4WNT] (H-RICVRVCRNGRCIMKCWNT-OH; disulfide 3-16, 7-12; N-terminus and C-terminus assumed) are 2.5 to 5 µM, 0.64 to 4.66 µM, 0.625 to 1.25 µM and 22.9 to 29.6 µM.
